We go through five compounds from ChEMBL document CHEMBL1129260, “Evaluation of the stability and animal biodistribution of gadolinium (III) benzylamine-derivatized diethylenetriaminepentaacetic acid” (J Med Chem, 1996).

This data set in a line: Gadolinium(III) stability constants (log K value) for the compound polyamino carboxylate derivative.

Turning to `CCCOC(=O)CN(CCN(CCN(CC(=O)O)CC(=O)O)CC(=O)O)CC(=O)O`, the “log K Gd(III) stability constant” value is recorded as 18.9. On to `CCN(CCN(CC(=O)O)CC(=O)O)CCN(CC(=O)O)CC(=O)O`, for which the “log K Gd(III) stability constant” value is recorded as 17.8. The figure for `O=C(O)CN(CCN(CC(=O)O)CC(=O)O)CCN(CC(=O)O)C(COCc1ccccc1)C(=O)O` (stereo not given) is 22.6; for `CCCNC(=O)CN(CCN(CCN(CC(=O)O)CC(=O)O)CC(=O)O)CC(=O)O` it is 19.7.

For the compound `O=C(O)CN(CCN(CC(=O)O)CC(=O)O)CCN(CC(=O)O)CC(=O)O` [PENTETIC ACID], the “log K Gd(III) stability constant” value turned out to be 22.4.
